This is an account of results in patent publication US20220220103A1, “CYCLIN-DEPENDENT KINASE INHIBITORS” (SPV THERAPEUTICS INC., priority 2018, published 2022).

pIC50: −log10 of the molar value. Values joined by “and” are separate entries in the source; they are usually repeats but may differ in a detail not shown here. Equal values may be shown once. Read-outs that look alike come from different tables or passages of the source.

What all share (format): biochemical
One assay addresses CDK7 CyclinH (Homo sapiens, UniProt P50613). Nature of the assay: Inhibition assay, CDK7 CyclinH. As for the experimental part: (§1) The reaction was terminated by the addition of EDTA. The plates were analyzed using a Caliper LabChip 3000.
(§2) Additional inhibition assays were performed as described above.

The target of another assay is CDK4-CYCLIND1 (Homo sapiens, UniProt P11802). Description: Microfluidic LabChip inhibition assay, CDK4-CYCLIND1. The note with it: ATP 200 μM. The protocol:
as §1, §2

The next assay concerns the target CDK2-CYCLINA (Homo sapiens, UniProt P24941). Description: Microfluidic LabChip inhibition assay, CDK2-CYCLINA. The following applies: ATP 50 μM. As for the experimental part:
as §1, §2

The next assay has as its target CDK9-CYCLINT1 (Homo sapiens, UniProt P50750). Nature of the assay: Microfluidic LabChip inhibition assay, CDK9-CYCLINT1. The note with it: ATP 10 μM. As for the experimental part:
as §1, §2

In the next assay the target is CDK1/B (Homo sapiens, UniProt P06493). Nature of the assay: Inhibition assay, CDK1/B. The note with it: read-out: CDK1/B IC50. The protocol:
as §1, §2

The target of another assay is CDK6-CYCLIND3 (Homo sapiens, UniProt Q00534). Description: Microfluidic LabChip inhibition assay, CDK6-CYCLIND3. The note with it: ATP 300 μM. The protocol:
as §1, §2

Where [1] appears, read: Table 3a, second values in parentheses on the line below, not explained, read-out: CDK4 CyclinD1 IC50.
The mark [2] stands for this setting: Table 3b, second values in parentheses on the line below, not explained, read-out: CDK4 CyclinD1 IC50.
Where [3] appears, read: Table 3a, read-out: CDK6 CyclinD3 IC50.

CDK6-CYCLIND3, sequence (Q00534 whole entry): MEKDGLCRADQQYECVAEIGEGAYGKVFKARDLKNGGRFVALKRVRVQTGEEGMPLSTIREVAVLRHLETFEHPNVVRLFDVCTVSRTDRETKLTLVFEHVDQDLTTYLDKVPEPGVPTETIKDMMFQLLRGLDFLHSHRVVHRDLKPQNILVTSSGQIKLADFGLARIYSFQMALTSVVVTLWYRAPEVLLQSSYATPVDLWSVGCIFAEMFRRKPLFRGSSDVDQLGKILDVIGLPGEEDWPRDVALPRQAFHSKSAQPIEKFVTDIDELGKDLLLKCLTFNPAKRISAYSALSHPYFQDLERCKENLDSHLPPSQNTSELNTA
CDK6-CYCLIND3, sequence (P30281 whole entry partner): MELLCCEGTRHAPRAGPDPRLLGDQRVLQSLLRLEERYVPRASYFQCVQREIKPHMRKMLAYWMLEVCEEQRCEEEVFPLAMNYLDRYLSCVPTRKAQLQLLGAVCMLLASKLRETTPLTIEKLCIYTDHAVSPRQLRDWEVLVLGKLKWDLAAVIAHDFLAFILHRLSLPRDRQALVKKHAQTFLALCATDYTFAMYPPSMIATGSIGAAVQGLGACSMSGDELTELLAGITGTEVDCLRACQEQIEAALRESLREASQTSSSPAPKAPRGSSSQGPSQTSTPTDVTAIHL
CDK9-CYCLINT1, sequence (P50750 whole entry): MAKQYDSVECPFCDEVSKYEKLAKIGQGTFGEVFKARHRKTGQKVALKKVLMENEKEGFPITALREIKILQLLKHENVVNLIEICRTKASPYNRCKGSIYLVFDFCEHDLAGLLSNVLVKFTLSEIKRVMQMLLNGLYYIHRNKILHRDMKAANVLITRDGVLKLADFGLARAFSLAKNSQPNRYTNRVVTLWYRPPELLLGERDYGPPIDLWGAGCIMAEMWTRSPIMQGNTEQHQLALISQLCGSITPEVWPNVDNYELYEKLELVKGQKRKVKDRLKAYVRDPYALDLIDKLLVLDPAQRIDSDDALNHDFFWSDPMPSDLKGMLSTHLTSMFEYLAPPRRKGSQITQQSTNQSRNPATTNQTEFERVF
CDK9-CYCLINT1, sequence (O60563 whole entry partner): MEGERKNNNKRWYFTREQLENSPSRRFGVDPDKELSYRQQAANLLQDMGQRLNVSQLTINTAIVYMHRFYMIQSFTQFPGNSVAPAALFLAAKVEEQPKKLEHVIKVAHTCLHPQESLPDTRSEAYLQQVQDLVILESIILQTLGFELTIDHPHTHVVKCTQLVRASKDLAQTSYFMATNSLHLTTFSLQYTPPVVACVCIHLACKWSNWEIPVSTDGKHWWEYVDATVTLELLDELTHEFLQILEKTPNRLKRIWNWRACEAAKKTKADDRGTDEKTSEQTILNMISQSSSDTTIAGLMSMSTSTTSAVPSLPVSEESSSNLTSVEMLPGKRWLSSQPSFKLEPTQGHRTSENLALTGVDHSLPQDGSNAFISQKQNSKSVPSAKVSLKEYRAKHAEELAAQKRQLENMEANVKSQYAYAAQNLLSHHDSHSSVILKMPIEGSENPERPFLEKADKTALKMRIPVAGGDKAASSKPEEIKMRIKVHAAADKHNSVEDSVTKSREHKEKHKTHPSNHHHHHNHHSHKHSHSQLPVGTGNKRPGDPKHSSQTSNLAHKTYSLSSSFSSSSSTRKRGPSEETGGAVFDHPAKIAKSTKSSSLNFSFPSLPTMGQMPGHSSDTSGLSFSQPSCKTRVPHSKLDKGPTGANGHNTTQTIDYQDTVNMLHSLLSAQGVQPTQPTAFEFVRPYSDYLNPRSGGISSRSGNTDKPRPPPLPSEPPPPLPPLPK
CDK1/B, sequence (P06493 whole entry): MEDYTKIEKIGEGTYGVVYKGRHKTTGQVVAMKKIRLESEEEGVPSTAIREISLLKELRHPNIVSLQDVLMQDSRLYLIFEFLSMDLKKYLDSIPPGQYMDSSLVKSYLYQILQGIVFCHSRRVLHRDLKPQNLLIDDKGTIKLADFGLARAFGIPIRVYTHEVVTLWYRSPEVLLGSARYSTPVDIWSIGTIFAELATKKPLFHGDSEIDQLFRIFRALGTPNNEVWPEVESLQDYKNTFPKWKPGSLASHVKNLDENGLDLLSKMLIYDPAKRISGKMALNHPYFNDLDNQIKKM
CDK1/B, sequence (P14635 whole entry partner): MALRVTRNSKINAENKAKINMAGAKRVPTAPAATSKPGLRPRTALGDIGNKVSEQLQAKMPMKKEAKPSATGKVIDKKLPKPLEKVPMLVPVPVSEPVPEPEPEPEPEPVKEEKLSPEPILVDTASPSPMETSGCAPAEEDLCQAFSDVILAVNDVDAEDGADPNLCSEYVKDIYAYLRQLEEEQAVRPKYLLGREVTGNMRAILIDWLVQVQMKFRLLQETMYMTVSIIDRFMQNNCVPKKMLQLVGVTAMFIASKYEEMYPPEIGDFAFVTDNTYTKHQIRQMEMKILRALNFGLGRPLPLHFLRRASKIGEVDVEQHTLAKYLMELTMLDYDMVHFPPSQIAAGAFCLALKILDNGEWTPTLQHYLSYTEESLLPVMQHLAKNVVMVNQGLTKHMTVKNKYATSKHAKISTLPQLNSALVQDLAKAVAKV
CDK4-CYCLIND1, sequence (P11802 whole entry): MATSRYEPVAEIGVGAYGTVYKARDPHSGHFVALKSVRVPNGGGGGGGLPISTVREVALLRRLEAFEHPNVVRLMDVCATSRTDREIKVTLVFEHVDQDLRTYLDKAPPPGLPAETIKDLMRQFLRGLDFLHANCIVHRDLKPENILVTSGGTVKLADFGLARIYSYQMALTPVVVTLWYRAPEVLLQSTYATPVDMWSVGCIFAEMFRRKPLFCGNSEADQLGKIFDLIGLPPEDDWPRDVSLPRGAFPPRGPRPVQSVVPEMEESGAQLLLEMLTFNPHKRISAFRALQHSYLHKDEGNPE
CDK4-CYCLIND1, sequence (P24385 whole entry partner): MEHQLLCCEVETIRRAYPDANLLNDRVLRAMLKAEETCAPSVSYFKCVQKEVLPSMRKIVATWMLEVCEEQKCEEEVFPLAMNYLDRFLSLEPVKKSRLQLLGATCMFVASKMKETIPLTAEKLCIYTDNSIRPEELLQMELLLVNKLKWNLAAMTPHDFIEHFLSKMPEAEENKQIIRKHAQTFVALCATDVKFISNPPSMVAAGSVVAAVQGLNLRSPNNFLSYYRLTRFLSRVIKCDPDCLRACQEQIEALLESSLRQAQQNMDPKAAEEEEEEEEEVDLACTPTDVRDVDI
CDK7 CyclinH, sequence (P50613 whole entry): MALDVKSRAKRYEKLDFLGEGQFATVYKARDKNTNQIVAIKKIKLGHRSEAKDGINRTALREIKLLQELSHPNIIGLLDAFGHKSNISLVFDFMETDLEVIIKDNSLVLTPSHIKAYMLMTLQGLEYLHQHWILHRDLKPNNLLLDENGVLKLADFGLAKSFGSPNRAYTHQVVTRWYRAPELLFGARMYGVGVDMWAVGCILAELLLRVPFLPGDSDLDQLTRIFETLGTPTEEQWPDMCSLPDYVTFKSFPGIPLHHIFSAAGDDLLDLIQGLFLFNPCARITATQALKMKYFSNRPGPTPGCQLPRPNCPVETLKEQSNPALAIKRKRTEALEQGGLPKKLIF
CDK7 CyclinH, sequence (P51946 whole entry partner): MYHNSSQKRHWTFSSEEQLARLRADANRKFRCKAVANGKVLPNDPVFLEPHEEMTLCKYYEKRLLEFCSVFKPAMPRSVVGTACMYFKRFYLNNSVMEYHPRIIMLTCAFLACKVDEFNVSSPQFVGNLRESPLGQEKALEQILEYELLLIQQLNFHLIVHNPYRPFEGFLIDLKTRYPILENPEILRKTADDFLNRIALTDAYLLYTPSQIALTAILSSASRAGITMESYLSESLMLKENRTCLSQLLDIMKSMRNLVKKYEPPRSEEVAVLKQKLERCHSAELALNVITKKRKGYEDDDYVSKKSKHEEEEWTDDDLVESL
CDK7 CyclinH, sequence (P51948 whole entry partner): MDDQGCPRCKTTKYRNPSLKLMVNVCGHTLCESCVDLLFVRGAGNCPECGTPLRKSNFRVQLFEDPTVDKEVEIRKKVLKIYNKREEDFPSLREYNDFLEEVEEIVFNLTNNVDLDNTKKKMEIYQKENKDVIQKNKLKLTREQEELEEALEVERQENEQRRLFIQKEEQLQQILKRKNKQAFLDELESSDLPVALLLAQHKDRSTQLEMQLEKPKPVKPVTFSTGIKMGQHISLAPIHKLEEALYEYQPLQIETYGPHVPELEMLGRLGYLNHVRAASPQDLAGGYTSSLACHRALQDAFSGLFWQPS

Take `CC(=O)c1c(C)c2cnc(Nc3ccc(OCCN(C)C)cc3)nc2n(C2CCCC2)c1=O` [Compound B59, 6-acetyl-8-cyclopentyl-2-((4-(2-(dimethylamino)ethoxy)phenyl)amino)-5-methylpyrido[2,3-d]pyrimidin-7(8H)-one]: the pIC50 at CDK7 CyclinH (Table 3a) was 6.19; against CDK7 CyclinH (Table 3b), 6.19; on CDK4-CYCLIND1 (setting [1]), > 8.49; at CDK4-CYCLIND1 (setting [2]), > 8.49; on CDK2-CYCLINA (Table 3a) it was 6.68; on CDK2-CYCLINA (Table 3b) it was 6.68. Also, the pIC50 against CDK9-CYCLINT1 (Table 3a) is > 8.49; against CDK9-CYCLINT1 (Table 3b) it was > 8.49; at CDK1/B (Table 3a), 6.28.

Regarding `CC(=O)c1c(C)c2cnc(Nc3ccc(OCCN(C)C)cc3)nc2n(C2CCCC2)c1=O` [Compound B60, 6-acetyl-8-cyclopentyl-2-((4-(2-(dimethylamino)ethoxy)phenyl)amino)-5-methylpyrido[2,3-d]pyrimidin-7(8H)-one], the pIC50 is 5.96 against CDK7 CyclinH (Table 3a); 5.96 against CDK7 CyclinH (Table 3b); 8.52 and 8.80 at CDK4-CYCLIND1 (setting [1]); 8.52 and 8.80 on CDK4-CYCLIND1 (setting [2]); 7.11 against CDK2-CYCLINA (Table 3a); 7.11 against CDK2-CYCLINA (Table 3b). Further, the results for the pIC50 on CDK9-CYCLINT1 (Table 3a), against CDK9-CYCLINT1 (Table 3b) and at CDK6-CYCLIND3 (setting [3]) were 7.50, 7.50 and 8.00, respectively.

With `CC(=O)c1c(C)c2cnc(Nc3ccc(OCCN(C)C)c(C)c3)nc2n(C2CCCC2)c1=O` [Compound B61, 6-acetyl-8-cyclopentyl-2-((4-(2-(dimethylamino)ethoxy)-3-methylphenyl)amino)-5-methylpyrido[2,3-d]pyrimidin-7(8H)-one], the pIC50 is < 4.00 on CDK7 CyclinH (Table 3a); < 4.00 at CDK7 CyclinH (Table 3b); 5.80 on CDK4-CYCLIND1 (setting [1]); 5.80 on CDK4-CYCLIND1 (setting [2]); 5.11 on CDK2-CYCLINA (Table 3a); 5.11 on CDK2-CYCLINA (Table 3b). Moreover, the figures for the pIC50 against CDK9-CYCLINT1 (Table 3a), at CDK9-CYCLINT1 (Table 3b) and at CDK6-CYCLIND3 (setting [3]) were 6.10, 6.10 and 5.40, respectively.

Take `COc1cc(Nc2ncc3c(C)c(C(C)=O)c(=O)n(C4CCCC4)c3n2)ccc1OCCN(C)C` [Compound B62, 6-acetyl-8-cyclopentyl-2-((4-(2-(dimethylamino)ethoxy)-3-methoxyphenyl)amino)-5-methylpyrido[2,3-d]pyrimidin-7(8H)-one]: the pIC50 against CDK7 CyclinH (Table 3a) was 5.89; against CDK7 CyclinH (Table 3b), 5.89; at CDK4-CYCLIND1 (setting [1]) it was 7.58 and 7.85; at CDK4-CYCLIND1 (setting [2]), 7.58 and 7.85; against CDK2-CYCLINA (Table 3a), 6.55; against CDK2-CYCLINA (Table 3b), 6.55. Also, the pIC50 was 6.47 at CDK9-CYCLINT1 (Table 3a), 6.47 against CDK9-CYCLINT1 (Table 3b) and 7.43 at CDK6-CYCLIND3 (setting [3]).

In the case of `CC(=O)c1c(C)c2cnc(Nc3ccc(OCCN4CCCC4)cn3)nc2n(C2CCCC2)c1=O` [Compound B66, 6-acetyl-8-cyclopentyl-5-methyl-2-((5-(2-(pyrrolidin-1-yl)ethoxy)pyridin-2-yl)amino)pyrido[2,3-d]pyrimidin-7(8H)-one], the pIC50 against CDK7 CyclinH (Table 3a) is < 5.00; against CDK7 CyclinH (Table 3b), < 5.00; on CDK4-CYCLIND1 (setting [1]) it was 7.82; at CDK4-CYCLIND1 (setting [2]) it was 7.82; against CDK2-CYCLINA (Table 3a), < 5.00; against CDK2-CYCLINA (Table 3b), < 5.00. For the same compound, the pIC50 at CDK9-CYCLINT1 (Table 3a) is 6.37; on CDK9-CYCLINT1 (Table 3b), 6.37; on CDK1/B (Table 3a), < 5.00; at CDK1/B (Table 3b), < 5.00.

Regarding `CC(=O)c1c(C)c2cnc(Nc3ccc(N4CCN(C)CC4)cn3)nc2n(C23CC(C2)C3)c1=O` [Compound B93, 6-acetyl-8-(bicyclo[1.1.1]pentan-1-yl)-5-methyl-2-((5-(4-methylpiperazin-1-yl)pyridin-2-yl)amino)pyrido[2,3-d]pyrimidin-7(8H)-one], the pIC50 at CDK7 CyclinH (Table 3a) was < 5.00; against CDK7 CyclinH (Table 3b) it was < 5.00; at CDK4-CYCLIND1 (setting [1]) it was 7.32; on CDK4-CYCLIND1 (setting [2]), 7.32; at CDK2-CYCLINA (Table 3a) it was < 5.00; on CDK2-CYCLINA (Table 3b), < 5.00. For the same compound, the pIC50 was 5.91 on CDK9-CYCLINT1 (Table 3a), 5.91 against CDK9-CYCLINT1 (Table 3b), < 5.00 on CDK1/B (Table 3a) and < 5.00 on CDK1/B (Table 3b).

`CC(=O)c1c(C)c2cnc(Nc3ccc(N4CCN(C)CC4)cc3)nc2n(C23CC(C2)C3)c1=O` [Compound B96, 6-acetyl-8-(bicyclo[1.1.1]pentan-1-yl)-5-methyl-2-((4-(4-methylpiperazin-1-yl)phenyl)amino)pyrido[2,3-d]pyrimidin-7(8H)-one]: the pIC50 at CDK7 CyclinH (Table 3a) is 5.55; on CDK7 CyclinH (Table 3b), 5.55; at CDK4-CYCLIND1 (setting [1]), 8.12; at CDK4-CYCLIND1 (setting [2]) it was 8.12; on CDK2-CYCLINA (Table 3a) it was 5.55; at CDK2-CYCLINA (Table 3b), 5.55. For the same compound, the pIC50 against CDK9-CYCLINT1 (Table 3a) is 7.01; on CDK9-CYCLINT1 (Table 3b), 7.01; on CDK1/B (Table 3a), 5.39.

For the compound `N#Cc1cc2cnc(Nc3ccc(N4CCN(CCO)CC4)c(F)c3)nc2n(C2CCCC2)c1=O` [Compound B106, 8-cyclopentyl-2-((3-fluoro-4-(4-(2-hydroxyethyl)piperazin-1-yl)phenyl)amino)-7-oxo-7,8-dihydropyrido[2,3-d]pyrimidine-6-carbonitrile], the pIC50 against CDK7 CyclinH (Table 3a) is 6.49; at CDK7 CyclinH (Table 3b) it was 6.49; on CDK4-CYCLIND1 (setting [1]), > 8.49; on CDK4-CYCLIND1 (setting [2]) it was > 8.49; on CDK2-CYCLINA (Table 3a) it was 6.51; against CDK2-CYCLINA (Table 3b) it was 6.51. The pIC50 was 7.56 on CDK9-CYCLINT1 (Table 3a), 7.56 against CDK9-CYCLINT1 (Table 3b) and 6.29 on CDK1/B (Table 3a).

As to `CNC(=O)c1cc2cnc(Nc3ccc(N4CCN(C)CC4)c(F)c3)nc2n(C2CCCC2)c1=O` [Compound B144, 8-cyclopentyl-2-((3-fluoro-4-(4-methylpiperazin-1-yl)phenyl)amino)-N-methyl-7-oxo-7,8-dihydropyrido[2,3-d]pyrimidine-6-carboxamide], the pIC50 at CDK4-CYCLIND1 (setting [1]) was 7.87 and 8.00; at CDK4-CYCLIND1 (setting [2]) it was 7.87 and 8.00; at CDK6-CYCLIND3 (setting [3]) it was 6.86.

Consider `CNC(=O)c1cc2cnc(Nc3ccc(N4CCN(C)CC4)nc3)nc2n(C2CCCC2)c1=O` [Compound B145, 8-cyclopentyl-N-methyl-2-((6-(4-methylpiperazin-1-yl)pyridin-3-yl)amino)-7-oxo-7,8-dihydropyrido[2,3-d]pyrimidine-6-carboxamide], for which the values for the pIC50 on CDK4-CYCLIND1 (setting [1]), at CDK4-CYCLIND1 (setting [2]) and on CDK6-CYCLIND3 (setting [3]) were 6.43, 6.43 and 5.65, respectively.

Regarding `CC(=O)NC(=O)c1cc2cnc(Nc3ccc(N4CCN(C)CC4)cn3)nc2n(C2CCCC2)c1=O` [Compound B146, N-acetyl-8-cyclopentyl-2-((5-(4-methylpiperazin-1-yl)pyridin-2-yl)amino)-7-oxo-7,8-dihydropyrido[2,3-d]pyrimidine-6-carboxamide], the pIC50 on CDK4-CYCLIND1 (setting [1]) was 6.34; at CDK4-CYCLIND1 (setting [2]), 6.34; on CDK6-CYCLIND3 (setting [3]), 5.83.

Regarding `N#Cc1cc2cnc(Nc3ccc(N4CCNCC4)c(F)c3)nc2n(C23CC(C2)C3)c1=O` [Compound B147, 8-(bicyclo[1.1.1]pentan-1-yl)-2-((3-fluoro-4-(piperazin-1-yl)phenyl)amino)-7-oxo-7,8-dihydropyrido[2,3-d]pyrimidine-6-carbonitrile], the pIC50 on CDK4-CYCLIND1 (setting [1]) is 7.33; at CDK4-CYCLIND1 (setting [2]), 7.33; on CDK6-CYCLIND3 (setting [3]), 7.09.

`CN1CCN(c2ccc(Nc3ncc4cc(C#N)c(=O)n(C56CC(C5)C6)c4n3)cc2F)CC1` [Compound B148, 8-(bicyclo[1.1.1]pentan-1-yl)-2-((3-fluoro-4-(4-methylpiperazin-1-yl)phenyl)amino)-7-oxo-7,8-dihydropyrido[2,3-d]pyrimidine-6-carbonitrile]: the figures for the pIC50 on CDK4-CYCLIND1 (setting [1]), at CDK4-CYCLIND1 (setting [2]) and at CDK6-CYCLIND3 (setting [3]) were 7.22, 7.22 and 6.99, respectively.

Regarding `CC(=O)c1c(C)c2cnc(Nc3ccc(N4CC(C)NC(C)C4)cc3)nc2n(C2CCCC2)c1=O` (centres unmarked) [Compound B150, 6-acetyl-8-cyclopentyl-2-((4-(3,5-dimethylpiperazin-1-yl)phenyl)amino)-5-methylpyrido[2,3-d]pyrimidin-7(8H)-one], the pIC50 against CDK7 CyclinH (Table 3a) was 6.18; on CDK7 CyclinH (Table 3b), 6.18; at CDK4-CYCLIND1 (setting [1]), > 8.49; at CDK4-CYCLIND1 (setting [2]), > 8.49; on CDK2-CYCLINA (Table 3a) it was 6.71; against CDK2-CYCLINA (Table 3b) it was 6.71. The pIC50 at CDK1/B (Table 3a) is 6.30.

On to `CC(=O)c1c(C)c2cnc(Nc3ccc(N(C)CCN(C)C)cc3)nc2n(C23CC(C2)C3)c1=O` [Compound B154, 6-acetyl-8-(bicyclo[1.1.1]pentan-1-yl)-2-((4-((2-(dimethylamino)ethyl)(methyl)amino)phenyl)amino)-5-methylpyrido[2,3-d]pyrimidin-7(8H)-one], for which the pIC50 is 6.11 on CDK7 CyclinH (Table 3a); 6.11 against CDK7 CyclinH (Table 3b); 5.82 against CDK2-CYCLINA (Table 3a); 5.82 against CDK2-CYCLINA (Table 3b); 5.76 at CDK1/B (Table 3a).

For `CC(=O)c1c(C)c2cnc(Nc3ccc(N(C)CCN(C)C)cc3)nc2n(C2CCCC2)c1=O` [Compound B155, 6-acetyl-8-cyclopentyl-2-((4-((2-(dimethylamino)ethyl)(methyl)amino)phenyl)amino)-5-methylpyrido[2,3-d]pyrimidin-7(8H)-one], the pIC50 is 6.33 on CDK7 CyclinH (Table 3a); 6.33 on CDK7 CyclinH (Table 3b); > 8.49 on CDK4-CYCLIND1 (setting [1]); > 8.49 at CDK4-CYCLIND1 (setting [2]); 7.09 on CDK2-CYCLINA (Table 3a); 7.09 against CDK2-CYCLINA (Table 3b). At CDK1/B (Table 3a), the pIC50 is 6.76.

Take `CN1CCN(c2ccc(Nc3ncc4cc(C#N)c(=O)n(C5CCCC5)c4n3)cc2)CC1` [ON123300]: the pIC50 was 8.77 on CDK4-CYCLIND1 (Table 2, 25° C., read-out: CDK4 IC50) and 8.32 on CDK6-CYCLIND3 (Table 2, 25° C., read-out: CDK6 IC50).
